IC50 data for 23 molecules are collected here from patent US6331548A, “1-cycloalkyl-1,8-naphthyridin-4-one derivative as type IV phosphodiesterase inhibitor” (Suntory Limited, priority 1998, dated 2001).

Experiment [1] relates to TNF-α production by LPS stimulated macrophages. As to the kind of experiment: TNF-α production inhibitory activity by LPS stimulated macrophages. It is filed as cell-based. Particulars: Macrophage, BALB/c mouse peritoneal macrophages, cultured for 8 hours, ELISA. The procedure:
The following assay was used to evaluate the ability of the compound of the present invention to suppress TNF-α production by LPS stimulated macrophages according to Immunopharmacol. 29, 121-127 (1995).
1) 6 to 10 week old female BALB/c mice were used, 2 ml portions of thioglycolate were intraperitoneally administered, and the abdominal cavities were washed by 10 ml of PBS after 4 days, whereby 1 to 2×10^7 peritoneal cells were obtained per mouse. These were suspended in a hemocyte solution (0.75% ammonium chloride, 17 mM tris-hydrochlorate buffer, pH7.2), centrifuged, then resuspended in an RPMI1640 medium including 10% fetal calf serum and seeded in a 96-well cell culture plate at a density of 1×10^5 cells/50 μl/well. Since these cells adhered strongly to the tissue culture plate and were positive in nonspecific esterase staining, they were used for the test as mouse peritoneal macrophages. Mouse peritoneal macrophages were precultured overnight at 37° C. in […] for the experiment.
2) E. Coli (serum type 055:B5) derived LPS was dissolved in PBS in a concentration of 1 mg/ml, then sterilized by filtration. The test compound was dissolved in DMSO to make a 1000-fold concentration solution of the final concentration of use. 10 μl of the above LPS stock solution (final concentration 10 μg/ml) and 1 μl of the tested substance stock solution were added and mixed in 0.5 ml of RPMI1640 medium containing 10% fetal calf serum. This was added to the above cells at 50 μl/well and cultured for 8 hours. The cultured supernatant was recovered from each well and the TNF-α concentration was measured by the ELISA method (Cytoscreen® Immunoassay Kit Mouse TNF-α, BioSourse International).
The comparative example was the compound described in WO-A-97-04775, Example 1, mentioned above.

The target in experiment [2] is type IV phosphodiesterase. The experiment can be described thus: Type IV phosphodiesterase inhibiting activity. It is filed as biochemical, human. Particulars: U937 type IV phosphodiesterase fraction, 0.28 μM cAMP, pH 7.5, 30° C., 30 minutes; read-out: PDEIV-IC50. The procedure:
The following assay was used to evaluate the ability of the compound of the present invention to suppress type IV phosphodiesterase, according to Biochemical. Pharmacol. 48 (6), 1219-1223 (1994).
1) Type IV phosphodiesterase activity fractions were prepared as follows. Namely, human histiocytic lymphoma cell line U937 was cultured in an RPMI1640 medium containing 10% fetal calf serum to obtain 10^9 cells of U937. The cells were recovered by centrifugation and suspended in 40 ml of buffer A (20 mM bis-tris, 5 mM 2-mercaptoethanol, 2 mM benzamidine, 2 mM EDTA, 0.1 mM 4-(2-aminoethyl)benzensulfonyl hydrochloride, 50 mM sodium acetate, pH=6.5). The cells were broken by a sonication and centrifuged (4° C., 10,000 G, 10 minutes) to obtain a supernatant. This was filtered by a 0.45 μm filter to obtain the soluble fraction.
2) The soluble fraction obtained was applied into a 1×10 cm DEAE Sepharose column equalibrated with the buffer A. 120 ml of the buffer A containing a linear gradient solution of 0.05 to 1M sodium acetate was used to separate the phosphodiesterase and recover 24 5-ml fractions. Each of the fractions was measured for the cAMP phosphodiesterase activity.
3) The test compound was reacted at a desired concentration in a reaction mixture containing 20 mM tris-HCl (pH 7.5), 1 mM MgCl2, 100 μM EDTA, 330 μg/ml calf serum albumin, 10 μg/ml 5'-nucleotidase, 0.4 μCi ^3 H-cAMP (0.28 μM cAMP) and the type IV phosphodiesterase stored solution at 30° C. for 30 minutes. QAE-Sephadex suspended in 10 mM of hepes-Na (pH -7.0) was added to the reaction mixture which was then allowed to stand for 5 minutes, then the supernatant was obtained, QAE-Sephadex was further added, to the supernatant, and was allowed to stand for 5 minutes, then the supernatant was obtained and measured for radioactivity.

Structures can show the parent of a compound that is named as a salt.

Take `O=C(Nc1ccncc1)c1cn([C@H]2CC[C@H](O)CC2)c2ncccc2c1=O` [Example 113, N-(4-pyridyl)-1-(trans-4-hydroxycyclohexyl)-1,4-dihydro[1,8]naphthylidin-4-one-3-carboxamide]: the values for the IC50 in experiment [1] and in experiment [2] were 300 nM and 400 nM, respectively. Regarding `O=C(Nc1c(Cl)cncc1Cl)c1cn(N2CCOCC2)c2ncccc2c1=O` [Example 107, N-(3,5-dichloropyridin-4-yl)-1-(1-morpholino)-1,4-dihydro[1,8]naphthylidin-4-one-3-carboxamide], the IC50 in experiment [1] came to 3 nM; in experiment [2], 0.4 nM. The matching figures for `O=C(CN1CCC(n2cc(C(=O)Nc3c(Cl)cncc3Cl)c(=O)c3cccnc32)CC1)OCc1ccccc1` [Example 49, benzyl 2-{4-[3-[(3,5-dichloropyridin-4-yl)amino]carbonyl-1,4-dihydro[1,8]naphthylidin-4-one-1-yl]piperidino}acetate]: 200 nM and 22 nM. On to `CN1CCC(n2cc(C(=O)Nc3c(Cl)cncc3Cl)c(=O)c3cccnc32)CC1` [Example 51, N-(3,5-dichloropyridin-4-yl)-1-(1-methylpiperidin-4-yl)-1,4-dihydro[1,8]naphthylidin-4-one-3-carboxamide], for which the results for the IC50 in experiment [1] and in experiment [2] were 50 nM and 43 nM, respectively. As to `O=C(Nc1ccncc1)c1cn([C@H]2CCOC2)c2ncccc2c1=O` [Example 43, N-(4-pyridyl)-1-[(S)-tetrahydro-3-furanyl]-1,4-dihydro[1,8]naphthylidin-4-one-3-carboxamide], the figures for the IC50 in experiment [1] and in experiment [2] were 2500 nM and 190 nM, respectively.

On to `O=C(Nc1c(Cl)cncc1Cl)c1cn(C2CCS(=O)(=O)CC2)c2ncccc2c1=O` [Example 102 (Sulfon), N-(3,5-dichloropyridin-4-yl)-1-(1,1-dioxotetrahydrothiopyran-4-yl)-1,4-dihydro[1,8]naphthylidin-4-one-3-carboxamide], for which the IC50 stood at 200 nM in experiment [1] and 16 nM in experiment [2]. For the molecule `O=C(Nc1ccncc1)c1cn(C2CCCC2)c2ncccc2c1=O` [Example 149, N-(4-pyridyl)-1-cyclopentyl-1,4-dihydro[1,8]naphthylidin-4-one-3-carboxamide], the IC50 was determined as 78 nM in experiment [1] and 41 nM in experiment [2]. Take `O=C(Nc1ccncc1)c1cn(C2CCSCC2)c2ncccc2c1=O` [Example 100, N-(4-pyridyl)-1-(4-tetrahydrothiopyranyl)-1,4-dihydro[1,8]naphthylidin-4-one-3-carboxamide]: the IC50 in experiment [1] came to 70 nM; in experiment [2], 43 nM. In the case of `O=C(Nc1c(Cl)cncc1Cl)c1cn(C2CC[S+]([O-])CC2)c2ncccc2c1=O` (stereo not shown) [Example 102 (Sulfoxide), N-(3,5-dichloropyridin-4-yl)-1-(1-oxotetrahydrothiopyran-4-yl)-1,4-dihydro[1,8]naphthylidin-4-one-3-carboxamide], the IC50 in experiment [1] came out at 70 nM; in experiment [2] it was 5.1 nM. Consider `O=C(Nc1c(Cl)cncc1Cl)c1cn(C2CCNCC2)c2ncccc2c1=O` [Example 47, N-(3,5-dichloropyridin-4-yl)-1-(4-piperidyl)-1,4-dihydro[1,8]naphthylidin-4-one-3-carboxamide hydrochloride], for which the IC50 in experiment [1] turned out to be 800 nM; in experiment [2], 40 nM.

Take `O=C(Nc1c(Cl)cncc1Cl)c1cn([C@H]2CCOC2)c2ncccc2c1=O` [Example 44, N-(3,5-dichloropyridine-4-yl)-1-[(S)-tetrahydro-3-furanyl]-1,4-dihydro[1,8]naphthylidin-4-one-3-carboxamide]: the IC50 in experiment [1] was determined as 10 nM; in experiment [2] it was 2.7 nM. The matching figures for `CN(C)C(=O)[C@@H]1C[C@H](n2cc(C(=O)Nc3c(Cl)cncc3Cl)c(=O)c3cccnc32)CN1C(=O)OCc1ccccc1` [Example 92, N-(3,5-dichloropyridin-4-yl)-1-[(3S,5S)-(1-benzyloxycarbonyl-5-dimethylaminocarbonyl)pyrrolidin-3-yl]-1,4-dihydro[1,8]naphthylidin-4-one-3-carboxamide]: 70 nM and 2.1 nM. For `O=C(Nc1c(Cl)cncc1Cl)c1cn([C@H]2CC[C@@H](O)CC2)c2ncccc2c1=O` [Example 119, N-(3,5-dichloropyridin-4-yl)-1-(cis-4-hydroxycyclohexyl)-1,4-dihydro[1,8]naphthylidin-4-one-3-carboxamide], the figures for the IC50 in experiment [1] and in experiment [2] were 0.04 nM and 1 nM, respectively. As for `CN1CCN(n2cc(C(=O)Nc3c(Cl)cncc3Cl)c(=O)c3cccnc32)CC1` [Example 55, N-(3,5-dichloropyridin-4-yl)-1-(4-methylpiperazine-1-yl)-1,4-dihydro[1,8]naphthylidin-4-one-3-carboxamide], the IC50 was 10 nM in experiment [1] and 6.7 nM in experiment [2]. With `CCNC(=O)N1CC[C@H](n2cc(C(=O)Nc3c(Cl)cncc3Cl)c(=O)c3cccnc32)C1` [Example 18, (S)-N-(3,5-dichloropyridin-4-yl)-1-(1-ethylaminocarbonylpyrrolidin-3-yl)-1,4-dihydro[1,8]naphthylidin-4-one-3-carboxamide], the IC50 in experiment [1] stood at 1 nM; in experiment [2] it was 4.7 nM. For `CCn1cc(C(=O)NCCc2ccncc2)c(=O)c2ccc(C)nc21` [Comp. Ex., N-(2-(4-pyridyl)ethyl)-1-ethyl-7-methyl-1,8-naphthyridin-1,4-dihydro-4-one-3-carboxyamide, reference compound], the IC50 in experiment [1] amounted to 10000 nM; in experiment [2] it was 5200 nM.

As for `O=C(Nc1c(Cl)cncc1Cl)c1cn(C2CC2)c2ncccc2c1=O` [Example 140, N-(3,5-dichloropyridin-4-yl)-1-cyclopropyl-1,4-dihydro[1,8]naphthylidin-4-one-3-carboxamide], the half-maximal inhibitory concentration (IC50) in experiment [1] came out at 10 nM; in experiment [2], 2.5 nM. On to `CCOC(=O)N1CCC(n2cc(C(=O)Nc3c(Cl)cncc3Cl)c(=O)c3cccnc32)CC1` [Example 62, N-(3,5-dichloropyridin-4-yl)-1-(1-ethoxycarbonylpiperidin-4-yl)-1,4-dihydro[1,8]naphthylidin-4-one-3-carboxamide], for which the IC50 in experiment [2] was 2.3 nM. For `O=C(Nc1ccncc1)c1cn(C2CCC2)c2ncccc2c1=O` [Example 144, N-(4-pyridyl)-1-cyclobutyl-1,4-dihydro[1,8]naphthylidin-4-one-3-carboxamide], the IC50 in experiment [2] came out at 120 nM. Take `O=C(Nc1c(Cl)cncc1Cl)c1cn(C2CCC2)c2ncccc2c1=O` [Example 145, N-(3,5-dichloropyridin-4-yl)-1-cyclobutyl-1,4-dihydro[1,8]naphthylidin-4-one-3-carboxamide]: the IC50 in experiment [2] amounted to 8.3 nM. `COc1ccc(C2CNC(=O)C2)cc1OC1CCCC1` (stereo not shown) [Rolipram, reference compound] showed an IC50 in experiment [1] of 100 nM. Take `CN1CCN(Cc2ccc(C(=O)O[C@H]3CC[C@H](n4cc(C(=O)Nc5c(Cl)cncc5Cl)c(=O)c5cccnc54)CC3)cc2)CC1` [Example 133, trans-4-[3-{[(3,5-dichloro-4-pyridinyl)amino]carbonyl}-4-oxo[1,8]naphthylidin-1(4H)-yl]cyclohexyl 4-[(4-methylpiperazino)methyl]benzoate dihydrochloride]: the IC50 in experiment [2] was 7.3 nM. With `CCN(CC)Cc1ccc(C(=O)O[C@H]2CC[C@H](n3cc(C(=O)Nc4c(Cl)cncc4Cl)c(=O)c4cccnc43)CC2)cc1` [Example 159, trans-4-[3-{[(3,5-dichloro-4-pyridinyl)amino]carbonyl}-4-oxo[1,8]naphthylidin-1(4H)-yl]cyclohexyl 4-(diethylaminomethyl)benzoate hydrochloride], in experiment [2], the IC50 stood at 4 nM.

Usually IC50 stands for the concentration at which inhibition is half-maximal.
